± gives the expanded uncertainty stated by the source.
Conditions: 323.15 K, Liquid, Vibrating tube method

CCCCC(=O)OCC(COC(=O)CCCC)(COC(=O)CCCC)COC(=O)CCCC [pentaerythritol tetrapentanoate]
Conditions	mass density [kg/m3]
15928 kPa	1005.6 ± 1.2
15948 kPa	1005.6 ± 1.2
15968 kPa	1005.5 ± 1.2
15988 kPa	1005.5 ± 1.2
16012 kPa	1005.6 ± 1.2
16032 kPa	1005.7 ± 1.2
16056 kPa	1005.6 ± 1.2
16076 kPa	1005.7 ± 1.2
16096 kPa	1005.7 ± 1.2
16116 kPa	1005.7 ± 1.2
16141 kPa	1005.7 ± 1.2
16161 kPa	1005.6 ± 1.2
16185 kPa	1005.7 ± 1.2
16205 kPa	1005.7 ± 1.2
16227 kPa	1005.7 ± 1.2
16252 kPa	1005.7 ± 1.2
16273 kPa	1005.7 ± 1.2
16293 kPa	1005.7 ± 1.2
16318 kPa	1005.8 ± 1.2
16339 kPa	1005.8 ± 1.2
16360 kPa	1005.8 ± 1.2
16385 kPa	1005.8 ± 1.2
16406 kPa	1006 ± 1.2
16427 kPa	1005.8 ± 1.2
16453 kPa	1005.9 ± 1.2
16474 kPa	1006 ± 1.2
16495 kPa	1005.9 ± 1.2
16521 kPa	1005.9 ± 1.2
16542 kPa	1006 ± 1.2
16564 kPa	1006 ± 1.2
16586 kPa	1006 ± 1.2
16612 kPa	1006 ± 1.2
16634 kPa	1006.1 ± 1.2
16660 kPa	1006.1 ± 1.2
16681 kPa	1006 ± 1.2
16704 kPa	1006.1 ± 1.2
16730 kPa	1006.2 ± 1.2
16752 kPa	1006.1 ± 1.2
16774 kPa	1006.1 ± 1.2
16800 kPa	1006.1 ± 1.2
16823 kPa	1006.1 ± 1.2
16845 kPa	1006.2 ± 1.2
16872 kPa	1006.2 ± 1.2
16894 kPa	1006.1 ± 1.2
16917 kPa	1006.2 ± 1.2
16944 kPa	1006.3 ± 1.2
16967 kPa	1006.3 ± 1.2
16990 kPa	1006.2 ± 1.2
17017 kPa	1006.1 ± 1.2
17040 kPa	1006.2 ± 1.2
17063 kPa	1006.2 ± 1.2
17090 kPa	1006.4 ± 1.2
17114 kPa	1006.3 ± 1.2
17138 kPa	1006.4 ± 1.2
17161 kPa	1006.3 ± 1.2
17189 kPa	1006.4 ± 1.2
17212 kPa	1006.4 ± 1.2
17236 kPa	1006.4 ± 1.2
17264 kPa	1006.4 ± 1.2
17288 kPa	1006.4 ± 1.2
17312 kPa	1006.4 ± 1.2
17335 kPa	1006.5 ± 1.2
17364 kPa	1006.5 ± 1.2
17388 kPa	1006.6 ± 1.2
17412 kPa	1006.6 ± 1.2
17441 kPa	1006.5 ± 1.2
17467 kPa	1006.5 ± 1.2
17491 kPa	1006.5 ± 1.2
17520 kPa	1006.6 ± 1.2
17544 kPa	1006.6 ± 1.2
17568 kPa	1006.6 ± 1.2
17593 kPa	1006.6 ± 1.2
17623 kPa	1006.7 ± 1.2
17647 kPa	1006.7 ± 1.2
17672 kPa	1006.7 ± 1.2
17702 kPa	1006.8 ± 1.2
17726 kPa	1006.7 ± 1.2
17756 kPa	1006.6 ± 1.2
17781 kPa	1006.7 ± 1.2
17807 kPa	1006.7 ± 1.2
17832 kPa	1006.7 ± 1.2
17862 kPa	1006.8 ± 1.2
17887 kPa	1006.9 ± 1.2
17913 kPa	1006.7 ± 1.2
17944 kPa	1006.8 ± 1.2
17969 kPa	1006.8 ± 1.2
18000 kPa	1006.9 ± 1.2
18025 kPa	1006.8 ± 1.2
18051 kPa	1006.9 ± 1.2
18077 kPa	1006.9 ± 1.2
18108 kPa	1007 ± 1.2
18134 kPa	1007 ± 1.2
18161 kPa	1007.1 ± 1.2
18192 kPa	1007 ± 1.2
18218 kPa	1007 ± 1.2
18249 kPa	1007.1 ± 1.2
18276 kPa	1007.2 ± 1.2
18303 kPa	1007.1 ± 1.2
18329 kPa	1007.1 ± 1.2
18361 kPa	1007.1 ± 1.2
18388 kPa	1007.1 ± 1.2
18415 kPa	1007.1 ± 1.2
18447 kPa	1007.2 ± 1.2
18475 kPa	1007.2 ± 1.2
18502 kPa	1007.2 ± 1.2
18530 kPa	1007.2 ± 1.2
18563 kPa	1007.2 ± 1.2
18590 kPa	1007.3 ± 1.2
18618 kPa	1007.4 ± 1.2
18651 kPa	1007.4 ± 1.2
18679 kPa	1007.4 ± 1.2
18707 kPa	1007.3 ± 1.2
18740 kPa	1007.4 ± 1.2
18768 kPa	1007.3 ± 1.2
18797 kPa	1007.4 ± 1.2
18831 kPa	1007.4 ± 1.2
18859 kPa	1007.4 ± 1.2
18888 kPa	1007.4 ± 1.2
18917 kPa	1007.4 ± 1.2
18952 kPa	1007.5 ± 1.2
18980 kPa	1007.5 ± 1.2
19014 kPa	1007.5 ± 1.2
19043 kPa	1007.6 ± 1.2
19072 kPa	1007.5 ± 1.2
19101 kPa	1007.7 ± 1.2
19136 kPa	1007.6 ± 1.2
19166 kPa	1007.7 ± 1.2
19196 kPa	1007.7 ± 1.2
19232 kPa	1007.6 ± 1.2
19262 kPa	1007.7 ± 1.2
19292 kPa	1007.8 ± 1.2
19322 kPa	1007.7 ± 1.2
19388 kPa	1007.8 ± 1.2
19515 kPa	1007.8 ± 1.2
19552 kPa	1007.8 ± 1.2
19582 kPa	1007.8 ± 1.2
19613 kPa	1008 ± 1.2
19650 kPa	1007.9 ± 1.2
19682 kPa	1008 ± 1.2
19716 kPa	1008 ± 1.2
19747 kPa	1008.1 ± 1.2
19778 kPa	1007.9 ± 1.2
19817 kPa	1008 ± 1.2
19848 kPa	1008 ± 1.2
19887 kPa	1008 ± 1.2
19919 kPa	1008 ± 1.2
19952 kPa	1008.1 ± 1.2
19992 kPa	1008.1 ± 1.2
20023 kPa	1008.2 ± 1.2
20052 kPa	1008.2 ± 1.2
20085 kPa	1008.2 ± 1.2
20113 kPa	1008.2 ± 1.2
20143 kPa	1008.2 ± 1.2
20171 kPa	1008.3 ± 1.2
20199 kPa	1008.2 ± 1.2
20232 kPa	1008.3 ± 1.2
20260 kPa	1008.2 ± 1.2
20288 kPa	1008.4 ± 1.2
20321 kPa	1008.4 ± 1.2
20349 kPa	1008.4 ± 1.2
